Measurements published in PMC3388080 (PLoS ONE, 2012).
Marks after values point to notes of the source that are not given here.

How the values were obtained:
male Sprague-Dawley rats = test: EEG/EMG/Tcore/LMA telemetry sleep study 1 (SB-334867 vs ZOL); format: in vivo, rat
Description: All rodent electroencephalograph (EEG) studies were performed at SRI International. Three groups of eight male Sprague-Dawley rats (300±25 g; Charles River, Wilmington, MA) were implanted with chronic recording devices (F40-EET, Data Sciences Inc., St Paul, MN) for continuous recordings of EEG, electromyograph (EMG), core body temperature (Tcore), and LMA via telemetry as previously described. Data recording and scoring were performed as previously reported (see also Supplemental Material and Methods). The EEG and EMG data were scored in 10 sec epochs for waking (W), rapid eye movement sleep (REM), and non-REM sleep (NR). Tcore and LMA (counts per minute) were analyzed as hourly means. Data from the EEG studies are reported in hourly means such that the hourly time ZT1 refers to the hour between time points ZT0 and ZT1.
For each of the three separate studies, a repeated measures counter-balanced design was employed in which each rat received five separate dosings. […] All dosings were administered ip in a volume of 2 ml/kg. A minimum of 3 d elapsed between doses. Dosing occurred during the middle of the rats’ normal active period at the start of ZT19 and was typically completed within 10 min. Animals were continuously recorded for 6 h prior to dosing and for 18 h following dosing.

rHCRTR2 = molecular target: T1, rHCRTR2 (Rattus norvegicus, UniProt P56719); test: Inhibition of [^3H]almorexant binding to HEK293-rHCRTR2 membranes
T1 construct: expressed in transfected cells; host or cells: HEK293 (transient transfection, pCI-Neo vector), membrane preparation
Excerpt: The rat cDNAs encoding HCRTR1 (Accession No. P56718) and HCRTR2 (Accession No. P56719) were subcloned into pCI-Neo expression vectors (Promega, Madison, WI) and used to transfect HEK293 cells (acquired commercially from ATCC-LGC, Molsheim, France) as previously described.

hHCRTR2 = molecular target: hHCRTR2; design: method as in PMID 9821961; settings: 37°C; cited from earlier work

T1 sequence (P56719 whole entry): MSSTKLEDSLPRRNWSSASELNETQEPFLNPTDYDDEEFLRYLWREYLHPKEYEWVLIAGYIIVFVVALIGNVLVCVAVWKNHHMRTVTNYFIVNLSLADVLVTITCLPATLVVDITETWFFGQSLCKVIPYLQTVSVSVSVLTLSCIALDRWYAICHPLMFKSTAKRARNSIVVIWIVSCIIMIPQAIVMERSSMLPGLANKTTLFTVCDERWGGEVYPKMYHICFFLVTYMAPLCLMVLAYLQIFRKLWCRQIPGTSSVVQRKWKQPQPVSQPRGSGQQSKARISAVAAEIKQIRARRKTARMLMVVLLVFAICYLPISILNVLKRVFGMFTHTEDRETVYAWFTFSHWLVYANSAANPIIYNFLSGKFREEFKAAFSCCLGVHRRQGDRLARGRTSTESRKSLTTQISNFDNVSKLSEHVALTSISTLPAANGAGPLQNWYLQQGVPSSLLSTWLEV

## Cc1nc2ccc(NC(=O)Nc3ccnc4cccnc34)cc2o1.Cl [SB-334867, 1-(2-methylbenzoxazol-6-yl)-3-[1], [5]naphthyridin-4-yl-urea hydrochloride]
Male Sprague-Dawley rats; 3 and 30 mg/kg ip, first 4 and 6 h periods
  cumulative NR (in words): increased cumulative NR
Male Sprague-Dawley rats; 6 h Average, 3 mg/kg ip
  NR bout duration: 1.17 ± 0.12 ^+
  REM bout duration: 1.28 ± 0.14^+
  W bout duration: 4.29 ± 0.34
Male Sprague-Dawley rats; 6 h Average, 10 mg/kg ip
  NR bout duration: 1.00 ±0.12 ^+
  REM bout duration: 1.24 ±0.14^+
  W bout duration: 4.19 ±0.30
Male Sprague-Dawley rats; 6 h Average, 30 mg/kg ip
  NR bout duration: 1.18 ± 0.12 ^+
  REM bout duration: 1.05 ± 0.08^+
  W bout duration: 3.87 ± 0.21
Male Sprague-Dawley rats; 6 h Total, 3 mg/kg ip
  Number of NR bouts: 72.88 ± 5.37
  Number of REM bouts: 15.25 ±2.54
  Number of W bouts: 61.5 ±5.45
Male Sprague-Dawley rats; 6 h Total, 10 mg/kg ip
  Number of NR bouts: 76.13 ± 4.99
  Number of REM bouts: 14.38 ± 1.55
  Number of W bouts: 64.13 ± 3.89
Male Sprague-Dawley rats; 6 h Total, 30 mg/kg ip
  Number of NR bouts: 71.38 ± 2.20
  Number of REM bouts: 19.25 ± 1.50*^+
  Number of W bouts: 65.38 ± 3.54
Male Sprague-Dawley rats; ZT3, 10 and 30 mg/kg ip, vs vehicle
  NR during the subsequent light period (in words): NR decreased
Male Sprague-Dawley rats; ZT19, 3 mg/kg ip
  NR bout duration: 1.02 ± 0.14^+
  Number of NR bouts: 4.63 ± 2.07
  Number of REM bouts: 0.50 ± 0.33
  Number of W bouts: 2.88 ± 0.93
  REM bout duration: 1.21 ± 0.38^+
  W bout duration: 31.21 ± 8.79
Male Sprague-Dawley rats; ZT19, 10 mg/kg ip
  NR bout duration: 1.56 ± 0.59
  Number of NR bouts: 7.88 ± 2.52
  Number of REM bouts: 1.00 ± .050
  Number of W bouts: 6.25 ± 1.78
  REM bout duration: 0.95 ± 0.09
  W bout duration: 16.83 ± 6.40
Male Sprague-Dawley rats; ZT19, 30 mg/kg ip
  NR bout duration: 1.29 ± 0.24
  Number of NR bouts: 7.75 ± 1.93
  Number of REM bouts: 1.50 ± 0.46
  Number of W bouts: 5.75 ± 1.10
  REM bout duration: 1.04 ± 0.27
  W bout duration: 13.73 ± 6.71
Male Sprague-Dawley rats; ZT20, 3 mg/kg ip
  NR bout duration: 1.29 ± 0.15^+
  Number of NR bouts: 16.25 ± 2.43
  Number of REM bouts: 4.38 ± 1.21
  Number of W bouts: 12.25 ± 2.06
  REM bout duration: 1.34 ± 0.16^+
  W bout duration: 3.39 ± 0.78
Male Sprague-Dawley rats; ZT20, 10 mg/kg ip
  NR bout duration: 1.14 ± 0.12^+
  Number of NR bouts: 17.50 ± 3.34
  Number of REM bouts: 4.38 ± 1.19
  Number of W bouts: 13.88 ± 2.94
  REM bout duration: 1.16 ± 0.14^+
  W bout duration: 9.58 ± 7.23
Male Sprague-Dawley rats; ZT20, 30 mg/kg ip
  NR bout duration: 1.41 ± 0.26^+
  Number of NR bouts: 13.75 ± 1.79
  Number of REM bouts: 3.88 ± 0.99
  Number of W bouts: 12.63 ± 1.53
  REM bout duration: 1.27 ± 0.14^+
  W bout duration: 3.30 ± 0.88
Male Sprague-Dawley rats; ZT21, 3 mg/kg ip
  NR bout duration: 1.45 ± 0.28
  Number of NR bouts: 20.75 ± 2.40
  Number of REM bouts: 5.63 ± 0.65
  Number of W bouts: 16.38 ± 1.96
  REM bout duration: 1.28 ± 0.18
  W bout duration: 1.44 ± 0.20
Male Sprague-Dawley rats; ZT21, 10 mg/kg ip
  NR bout duration: 1.13 ± 0.25
  Number of NR bouts: 18.13 ± 2.03
  Number of REM bouts: 3.75 ± 0.82
  Number of W bouts: 14.88 ± 1.83
  REM bout duration: 1.38 ± 0.21
  W bout duration: 2.72 ± 0.50
Male Sprague-Dawley rats; ZT21, 30 mg/kg ip
  NR bout duration: 1.27 ± 0.16
  Number of NR bouts: 16.75 ± 2.30
  Number of REM bouts: 5.63 ± 1.10
  Number of W bouts: 13.00 ± 1.90
  REM bout duration: 1.04 ± 0.11
  W bout duration: 2.98 ± 0.68
Male Sprague-Dawley rats; ZT21 at 30 mg/kg and ZT24 at 3 mg/kg
  NR bout duration (in words): increased NR bout duration
Male Sprague-Dawley rats; ZT22, 3 mg/kg ip
  NR bout duration: 0.82 ± 0.13
  Number of NR bouts: 12.75 ± 2.22
  Number of REM bouts: 2.75 ± 1.10
  Number of W bouts: 13.38 ± 2.85
  REM bout duration: 1.10 ± 0.27
  W bout duration: 6.85 ± 3.36
Male Sprague-Dawley rats; ZT22, 10 mg/kg ip
  NR bout duration: 0.86 ± 0.10
  Number of NR bouts: 17.13 ± 2.47
  Number of REM bouts: 3.13 ± 0.67
  Number of W bouts: 14.13 ± 1.81
  REM bout duration: 1.16 ± 0.25
  W bout duration: 3.15 ± 0.53
Male Sprague-Dawley rats; ZT22, 30 mg/kg ip
  NR bout duration: 1.19 ± 0.23
  Number of NR bouts: 13.13 ± 2.17
  Number of REM bouts: 3.38 ± 1.03
  Number of W bouts: 16.00 ± 2.00
  REM bout duration: 1.25 ± 0.22
  W bout duration: 2.75 ± 0.54
Male Sprague-Dawley rats; ZT23, 3 mg/kg ip
  NR bout duration: 0.77 ± 0.08
  Number of NR bouts: 10.50 ± 2.01
  Number of REM bouts: 1.00 ± 0.42
  Number of W bouts: 9.00 ± 1.66
  REM bout duration: 0.63 ± 0.29
  W bout duration: 6.72 ± 1.58
Male Sprague-Dawley rats; ZT23, 10 mg/kg ip
  NR bout duration: 0.77 ± 0.13
  Number of NR bouts: 9.88 ± 1.88
  Number of REM bouts: 1.50 ± 0.63
  Number of W bouts: 8.88 ± 1.59
  REM bout duration: 1.12 ± 0.34
  W bout duration: 11.56 ± 6.94
Male Sprague-Dawley rats; ZT23, 30 mg/kg ip
  NR bout duration: 0.80 ± 0.14
  Number of NR bouts: 8.88 ± 2.17
  Number of REM bouts: 2.75 ± 1.08
  Number of W bouts: 8.38 ± 2.00
  REM bout duration: 0.75 ± 0.17
  W bout duration: 12.52 ± 6.85
Male Sprague-Dawley rats; ZT24, 3 mg/kg ip
  NR bout duration: 1.40 ± 0.24
  Number of NR bouts: 7.63 ± 2.02
  Number of REM bouts: 1.00 ± 0.42
  Number of W bouts: 7.00 ± 1.60
  REM bout duration: 1.13 ± 0.39
  W bout duration: 14.70 ± 7.18
Male Sprague-Dawley rats; ZT24, 10 mg/kg ip
  NR bout duration: 0.99 ± 0.18
  Number of NR bouts: 5.38 ± 1.45
  Number of REM bouts: 0.63 ± 0.26
  Number of W bouts: 5.25 ± 1.22
  REM bout duration: 0.48 ± 0.16^+
  W bout duration: 16.01 ± 6.44
Male Sprague-Dawley rats; ZT24, 30 mg/kg ip
  NR bout duration: 1.05 ± 0.12
  Number of NR bouts: 10.88 ± 1.90
  Number of REM bouts: 2.13 ± 0.55
  Number of W bouts: 8.63 ±1.29
  REM bout duration: 0.81 ± 0.12
  W bout duration: 5.39 ± 6.44
Male Sprague-Dawley rats; high concentration tested, across 6 h
  Tcore (in words): decreased Tcore

## CNC(=O)[C@@H](c1ccccc1)N1CCc2cc(OC)c(OC)cc2[C@@H]1CCc1ccc(C(F)(F)F)cc1 [almorexant, (2R)-2-[(1S)-6,7-Dimethoxy-1-[2-(4-trifluoromethyl-phenyl)-ethyl]-3,4-dihydro-1H-isoquinolin-2-yl]-N-methyl-2-phenyl-acetamide]
rHCRTR2
  Ki: 2 nM
hHCRTR2
  Ki: 0.9 nM
